One data set relates to LC3-II in KP4 cells. Description: Immunoblot of LC3-I and LC3-II protein levels (autophagy). In kind it is cell-based. The settings on record: KP4, 24 h; for LC3-II level: relative to DMSO, metformin 200 µM and 2 mM, 7 200 µM, 6 100 and 200 µM. As for the experimental part: Immunoblot analysis: For the protein degradation assay, cells were seeded at a density of 1 × 10^5 cells per well in 6-well plates overnight, and then treated with vehicle and compounds for 24 h. The culture medium was removed. […] Equal amounts of protein were separated via sodium dodecyl sulfate-polyacrylamide gel electrophoresis (SDS-PAGE) and transferred to nitrocellulose membranes. […] Membranes were washed again with TBST and incubated with the primary antibody overnight at 4 °C. After being washed with TBST three times, the membranes were incubated with the secondary antibody for 1 h. After being washed with TBST three times, membranes were visualized using chemiluminescence using a Western Lightning™ Plus Chemiluminescence Reagent.
Background: Immunoblotting shows a protein as a band on a membrane.

Data set [1] has as its system IMR90 (lung fibroblasts, healthy cells). Description: Cell proliferation assay (crystal violet), EC50 determination. Format: cell-based. The settings on record: for EC50: Homo sapiens, IMR-90, 72 h of treatment, mean ± SD; for effect on healthy cell line IMR90 (toxicity): at the concentrations examined. The method, then: (§1) Materials and methods for in vitro experiments: Absorbance measurements for EC50 determination were performed using a SpectraMax 190 microplates reader from Molecular Devices. Resulting data were analyzed with PRISM software (version 10.3.0) using curve fitting with non-linear regression (log(inhibitor) vs. response—variable slope (four parameters)). Statistical analyses were also performed using the PRISM software, using a one-way ANOVA test. Protein concentrations were determined using a Nanodrop 2000c spectrophotometer from Thermo Scientific (Waltham, MA, USA). A ChemiDoc MP Imaging System from BIO-RAD (Hercules, CA, USA) was used for imaging and analyzing Western blots. Resulting data were treated with Image Lab software (version 6.1).
(§2) Cells were seeded at a density of 1 × 10^3 cells per well for KP4 and PANC1, 4 × 10^3 for IMR90, and 2 × 10^3 for hTERT-HPNE in 96 well plates one day prior to treatments with vehicle and compounds for 72 h. The culture medium was removed. Cells were washed twice with cold PBS, and 1% glutaraldehyde was added to the wells for fixation for 10 min. Cells were then washed with water, stained with 0.2% crystal violet for 30 min at room temperature, washed with water, and then dried. The adherent crystal violet was solubilized in 10% acetic acid and the absorbance was read at a wavelength of 590 nm for the calculation of the cell viability.

In data set [2] the test system is PANC1 pancreatic cancer cells. The data set is described as above. In kind it is cell-based. The settings on record: Homo sapiens, PANC-1. The method, then: as §1, §2
Data set [3] has as its system hTERT-HPNE (immortalized pancreatic cells, healthy cells). The description is as above. The settings on record: for EC50: Homo sapiens, 72 h of treatment, mean ± SD; for effect on healthy cell line hTERT-HPNE (toxicity): at the concentrations examined. In kind it is cell-based, Human. The method, then:
(§3) Materials and methods for in vitro experiments: Absorbance measurements for EC50 determination were performed using a SpectraMax 190 microplates reader from Molecular Devices. […] Statistical analyses were also performed using the PRISM software, using a one-way ANOVA test. Protein concentrations were determined using a Nanodrop 2000c spectrophotometer from Thermo Scientific (Waltham, MA, USA). A ChemiDoc MP Imaging System from BIO-RAD (Hercules, CA, USA) was used for imaging and analyzing Western blots. Resulting data were treated with Image Lab software (version 6.1).
Cell Lines: Human pancreatic normal epithelial (HPNE hTERT) cells were obtained from Dr. M. Ouellette (University of Nebraska Medical Center). IMR90 was obtained from Coriell Institute (I90-79). PANC1 was obtained from ATCC and KP4 from the Massachusetts General Hospital Center for Molecular Therapeutics (CMT), courtesy of Dr. Bardeesy. […] All cell lines tested negative for mycoplasma contamination. No unpublished de novo cell lines were used.
as §2

Data set [4] relates to mitochondria (TOMM20) in KP4 cells. Description: Immunofluorescence assay of TOMM20 (mitochondrial morphology). The settings on record: KP4, 24 h; compound 6 200 µM, metformin 2 mM. In kind it is cell-based. The method, then:
Immunofluorescence assay: KP4 cells were seeded at a density of 8 × 10^4 cells per well on top of microscope cover glasses in 6-well plates overnight. They were then treated with vehicle or the studied compounds for 24 h. The culture medium was removed, and cells were washed three times with cold PBS. A solution of 4% paraformaldehyde was added into the wells for fixation for 10 min. Cells were washed again three times with 0.1 M glycine in PBS, then incubated with a solution of 3% BSA and 0.2% […] in PBS for 5 min at room temperature. Cells were washed again three times with a solution of 3% BSA in PBS, then incubated overnight with the primary antibody TOMM20 (1:100 in PBS, pH 7.4, 3% BSA). Cells were washed three times with 3% BSA in PBS and incubated for 1 h with the secondary antibody AF488 (1:2000 in PBS, pH 7.4, 3% BSA). Cells were finally washed three times with 3% BSA in PBS. A drop of mounting medium for fluorescence with DAPI was used to adhere cover glasses to microscope slides.
Antibodies: • I. Tom20 Antibody (F-10) #sc-17764 (Santa Cruz Biotechnology, Dallas, TX, USA): 1:100, 3% BSA in 1X PBS; • II. Goat anti-Mouse IgG (H + L) Highly Cross-Adsorbed Secondary Antibody, Alexa Fluor™ 488 #A-11029 (ThermoFisher/Invitrogen, Waltham, MA, USA): 1:2000, 3% BSA in 1X PBS.

The subject of data set [5] is KP4 pancreatic cancer cells. Description: Cell proliferation assay (crystal violet), EC50 determination. In kind it is cell-based. The settings on record: for impact on the growth of cancer cells: KP4 and PANC1. The method, then: as §3, §2
Data set [6] relates to OXPHOS proteins (vATP5A, UQCR2, SDHB, COXII, NDUFB8) in KP4 cells. Description: Immunoblot of OXPHOS mitochondrial respiratory chain proteins. In kind it is cell-based. The settings on record: KP4, 24 h of treatment. As for the experimental part:
Immunoblot analysis: For the protein degradation assay, cells were seeded at a density of 1 × 10^5 cells per well in 6-well plates overnight, and then treated with vehicle and compounds for 24 h. The culture medium was removed. Cells were washed twice with cold PBS and lysed with LAEMMLI 2X (BIO-RAD, Hercules, CA, USA, 4% SDS, 20% glycerol, 0.125 M Tris-HCl (pH 6.8)). Equal amounts of protein were separated via sodium dodecyl sulfate-polyacrylamide gel electrophoresis (SDS-PAGE) and transferred to nitrocellulose membranes. […] Membranes were washed again with TBST and incubated with the primary antibody overnight at 4 °C. After being washed with TBST three times, the membranes were incubated with the secondary antibody for 1 h. After being washed with TBST three times, membranes were visualized using chemiluminescence using a Western Lightning™ Plus Chemiluminescence Reagent.

In data set [7] the test system is mitochondria in KP4 cells. Description: Cell fluorescence assay: mitochondrial morphology by MitoTracker Deep Red FM confocal microscopy. Format: cell-based. The settings on record: for mitochondrial morphology (MTDR): metformin 2 mM, 7 1 mM, 6 50-200 µM. The method, then:
Cell fluorescence assay: KP4 cells were seeded at a density of 8 × 10^4 cells per well on top of microscope cover glasses in 6-well plates overnight. They were then treated with vehicle or the studied compounds for 24 h. The culture medium was refreshed with a solution of the MitoTracker® Deep Red FM (100 nM in DMEM). After 30 min at 37 °C, the medium was removed. Cells were washed twice with PBS and a solution of 4% paraformaldehyde was added into the wells for fixation for 10 min. Cells were washed again three times with 0.1 M glycine in PBS. A drop of mounting medium for fluorescence with DAPI was used to adhere cover glasses to microscope slides.

Setting [8] is: 72 h of treatment, mean ± SD, read-out: EC50 PANC1.
[9] abbreviates: Homo sapiens, PANC-1, KP4 and PANC1, text summary, read-out: median effective concentration / concentration of toxic activity on pancreatic cancer cell lines.
The mark [10] stands for this setting: Pancreatic cancer cell, 72 h of treatment, mean ± SD, read-out: EC50 KP4.
Where [11] appears, read: Pancreatic cancer cell, in Figure 2, read-out: EC50 KP4 (Figure 2).

Where two headings read alike, the source gives them in different places. Some results are limits rather than exact numbers.

In the case of `CCN(CC)CCCC(C)Nc1ccnc2cc(Cl)ccc12` (stereo not drawn) [chloroquine, reference compound], in the data set on LC3-II in KP4 cells, the LC3-II level entry was “increase in LC3-II levels”.

As for `CN(C)C(=N)N=C(N)N` [Met., Metformin, reference compound], the EC50 in data set [1] was above 20000 µM; in data set [2] (setting [8]), 3130 ± 1410 µM; in data set [3] it was above 20000 µM; in data set [5] (setting [9]), 1000 to 4000 µM; in data set [5] (setting [10]), 1490 ± 550 µM; in data set [5] (setting [11]), 2210 µM. Moreover, the “effect on healthy cell line IMR90 (toxicity)” value in data set [1] was “no noticeable effect”. The “mitochondrial morphology (TOMM20 immunofluorescence)” value in data set [4] is listed as “mild fragmentation of the network”. The “levels of OXPHOS mitochondrial respiratory chain proteins” value (from here on “levels”) in data set [6] was “did not appear to affect the levels”.

Take `CC(=O)NC(CSc1nc2c(=O)[nH]c(N)nc2n1Cc1ccc(F)cc1)C(=O)NCCCCCCNC(=N)NC(=N)N.O=CO` (stereo not drawn) [compound 6]: the EC50 in data set [1] is above 1000 µM; in data set [2] (setting [8]), 150 ± 30 µM; in data set [2] (in Figure 2, read-out: EC50 PANC1 (Figure 2)), 103 µM; in data set [3], above 1000 µM; in data set [5] (setting [9]), around 100 µM; in data set [5] (setting [10]) it was 100 ± 30 µM. Also, the EC50 in data set [5] (setting [11]) worked out at 74 µM. The “effect on healthy cell line IMR90 (toxicity)” value in data set [1] is on record as “no adverse impact”. For the same molecule, the “effect on healthy cell line hTERT-HPNE (toxicity)” value in data set [3] was “no adverse impact”. The “effect on lysosomal degradation of LC3B (LC3-II with and without chloroquine)” value in the data set with LC3-II in KP4 cells (in the presence of chloroquine) was “does not affect the degradation of LC3B”. Besides, in the data set on LC3-II in KP4 cells, the LC3-II level result is reported as “mild increase in LC3-II levels”. Moreover, the “cells displaying a fragmented or punctate mitochondrial network” value in data set [7] (KP4, 100 µM, 24 h of treatment, MTDR) is on record as “more than 50%”. Further, the “cells maintaining a filamentous network” value in data set [7] (KP4, 200 µM (doubling of 100 µM), 24 h, MTDR) is reported as below 10%. The MTDR fluorescence intensity result in data set [7] (KP4, 24 h) was “decrease in fluorescence intensity”. Also, in data set [7] (KP4, 24 h), the “mitochondrial morphology (MTDR)” value is reported as “punctate configuration”. Besides, the “mitochondrial morphology (TOMM20 immunofluorescence)” value in data set [4] is reported as “majority of cells assumed a punctate appearance”. The “selectivity index (SI)” value in data set [5] (cancer cells over healthy cells, 72 h of treatment) was above 10. Moreover, the “levels” value in data set [6] was “decrease in complex I and complex IV mitochondrial respiratory chain proteins”.

In the case of `CCCCCCNC(=O)C(CSc1nc2c(=O)[nH]c(N)nc2n1Cc1ccc(F)cc1)NC(C)=O` (stereo not drawn) [compound 7], the EC50 was above 1000 µM in data set [1], above 1000 µM in data set [2] (setting [8]), 110 ± 20 µM in data set [3] and above 1000 µM in data set [5] (setting [10]). For the same molecule, in data set [1], the “effect on healthy cell line IMR90 (toxicity)” value was “without exhibiting toxicity”. For the same molecule, the “effect on healthy cell line hTERT-HPNE (toxicity)” value in data set [3] was “appeared to affect”. Besides, the LC3-II level result in the data set on LC3-II in KP4 cells was “elevate LC3-II levels”. The “mitochondrial morphology (MTDR)” value in data set [7] (KP4, 24 h) was “predominantly formed a filamentous network”. Moreover, in data set [5], the “impact on the growth of cancer cells” value was “no discernible impact”. Besides, in data set [6], the “levels” value is “no effect on OXPHOS proteins”.

With `CC(=O)N[C@@H](CSc1nc2c(=O)[nH]c(N)nc2n1Cc1ccc(F)cc1)C(=O)O` [compound 5], the EC50 was above 5000 µM in data set [1], above 5000 µM in data set [2] (setting [8]), 3510 ± 1450 µM in data set [3] and above 5000 µM in data set [5] (setting [10]). Moreover, the “effect on healthy cell line IMR90 (toxicity)” value in data set [1] is “without exhibiting toxicity”. For the same molecule, the “effect on healthy cell line hTERT-HPNE (toxicity)” value in data set [3] is “appeared to affect”. Also, the “impact on the growth of cancer cells” value in data set [5] is reported as “no discernible impact”.

The values above are taken from article PMC11357661, “Gaining Insight into Mitochondrial Targeting: AUTAC-Biguanide as an Anticancer Agent” (Molecules, 2024).
